Measured values published in patent US8598182B2, “Insecticidal pyrimidinyl aryl hyrdrazones” (Dow AgroSciences, LLC., priority 2007, dated 2013).

Legend:
[1] = tested on: Corn Earworm (Helicoverpa zea); experiment: Insecticidal diet-surface test for corn earworm; format: in vivo; settings: second-instar corn earworm, 50 ug/cm2 on diet surface, 5 days after treatment, dead insects of 8
Protocol: (§1) The compounds identified in Table 1 were prepared using the procedures illustrated in the foregoing examples, and the compounds were tested against beet armyworm and corn earworm as follows:
(§2) Insecticidal Test for Corn Earworm (Helicoverpa zea) and Beet Armyworm (Spodoptera exigua).
(§3) To prepare test solution, the test compound was formulated at 2000 ppm solution as 4 mg/2 mL of 9 acetone:1 tap water. 50 μL of the 2000 ppm (equivalent to 50 ug/cm^2 dose on diet surface area) test solution was pipetted upon the surface of 1 mL of lepidopteran diet (Southland Multi-Species Lepidopteran Diet) contained in each of eight wells per insect species (one well=1 replication). A second-instar corn earworm and beet armyworm was placed upon the treated diet in each well once the solvent had air-dried. Trays containing the treated diet and larvae were covered and then held in a growth chamber at 25° C., 50-55% RH, and 16 hr light:8 hr dark for 5 days. Observation were conducted 5 days after treatment and infestation. The number of dead insects of 8 per species per treatment was then determined and the results are given in Table 1 as percent control at a dose of […].
(§4) Keys to the table: Mass spectral data were obtained using liquid chromatography mass spectroscopy (LC-MS). The masses are detected using electrospray ionization (ESI) and reported as Mol Ion (M+H, M−H); AVG LAPHEG 50 refers to activity against beet army worm (Spodoptera exigua) as defined above; AVG HELIZE 50 refers to activity against corn ear worm (Helicoverpa zea) as described above.

[2] = tested on: Beet Armyworm (Spodoptera exigua); experiment: Insecticidal diet-surface test for beet armyworm; format: in vivo; settings: second-instar beet armyworm, 50 ug/cm2 on diet surface, 5 days after treatment, dead insects of 8
Protocol: as §1, §2, §3, §4

| SMILES | HELIZE 50 (ug/cm2), percent control [1] [%] | LAPHEG 50 (ug/cm2), percent control [2] [%] |
| --- | --- | --- |
| Fc1ccc(Nc2cc(Cl)nc(N/N=C/c3ccc(OC(F)(F)F)cc3)n2)cc1C(F)(F)F [Compound 1, (6-Chloro-2-{N′-[1-(4-trifluoromethoxyphenyl)-methylidene]-hydrazino}-pyrimidin-4-yl)-(4-fluoro-3-trifluoromethylphenyl)amine] | 100 | 100 |
| CN(c1ccc(OC(F)(F)F)cc1)c1cc(C(F)(F)F)nc(N/N=C/c2ccc(OC(F)(F)F)cc2)n1 [Compound 2, Methyl-(4-trifluoromethoxyphenyl)-(2-{N′-[1-(4-trifluoromethoxy-phenyl)-methylidene]-hydrazino}-6-trifluoromethylpyrimidin-4-yl)amine] | 50 | 0 |
| Fc1ccc(Nc2cc(N/N=C/c3ccc(OC(F)(F)F)cc3)nc(NCc3ccc(Cl)nc3)n2)cc1C(F)(F)F [Compound 3, N-[2-(6-Chloropyridin-3-ylmethyl)]-N-[4-(4-fluoro-3-trifluoromethylphenyl)]-6-{N′-[1-(4-trifluoromethoxyphenyl)-methylidene]-hydrazino}pyrimidine-2,4-diamine] | 100 | 100 |
| Fc1ccc(Nc2ccnc(N/N=C/c3ccc(OC(F)(F)C(F)F)cc3)n2)cc1C(F)(F)F [Compound 4] | 100 | 100 |
| FC(F)C(F)(F)Oc1ccc(/C=N/Nc2nc(Cl)cc(Nc3ccc(OC(F)(F)C(F)F)cc3)n2)cc1 [Compound 5] | 88 | 100 |
| FC(F)C(F)(F)Oc1ccc(Nc2cc(Cl)nc(N/N=C/c3ccc(OC(F)(F)F)cc3)n2)cc1 [Compound 6] | 100 | 100 |
| FC(F)C(F)(F)Oc1ccc(Nc2cc(Cl)nc(N/N=C/c3cccc(OC(F)(F)C(F)F)c3)n2)cc1 [Compound 7] | 25 | 88 |
| Fc1ccc(/C=N/Nc2nc(Cl)cc(Nc3ccc(OC(F)(F)C(F)F)cc3)n2)cc1C(F)(F)F [Compound 8] | 100 | 100 |
| FC(F)C(F)(F)Oc1ccc(Nc2cc(Cl)nc(N/N=C/c3ccc4c(c3)OC(F)(F)O4)n2)cc1 [Compound 9] | 100 | 100 |
| FC(F)C(F)(F)Oc1ccc(Nc2cc(Cl)nc(N/N=C/c3ccc(Cl)cc3)n2)cc1 [Compound 10] | 88 | 63 |
| Fc1ccc(Nc2cc(Cl)nc(N/N=C/c3ccc(Cl)cc3)n2)cc1C(F)(F)F [Compound 11] | 100 | 100 |
| Fc1cnc(N/N=C/c2ccc(Br)cc2)nc1Nc1ccc(OC(F)(F)F)cc1 [Compound 12] | 100 | 0 |
| Fc1cnc(N/N=C/c2ccc(OC(F)(F)F)cc2)nc1Nc1ccc(OC(F)(F)F)cc1 [Compound 13] | 100 | 0 |
| Fc1cnc(N/N=C/c2ccc(OC(F)(F)C(F)F)cc2)nc1Nc1ccc(OC(F)(F)F)cc1 [Compound 14] | 88 | 0 |
| Fc1cnc(N/N=C/c2cccc(OC(F)(F)F)c2)nc1Nc1ccc(OC(F)(F)F)cc1 [Compound 15] | 75 | 0 |
| Fc1cnc(N/N=C/c2ccc(Cl)cc2)nc1Nc1ccc(OC(F)(F)F)cc1 [Compound 16] | 100 | 100 |
| Fc1cc(Nc2ccc(F)c(C(F)(F)F)c2)nc(NN=Cc2ccc(OC(F)(F)F)cc2)n1 [Compound 17] | 100 | 100 |
| Fc1cc(Nc2ccc(F)c(C(F)(F)F)c2)nc(NN=Cc2ccc(OC(F)(F)C(F)F)cc2)n1 [Compound 18] | 100 | 100 |
| Fc1cc(Nc2ccc(OC(F)(F)C(F)F)cc2)nc(NN=Cc2ccc(OC(F)(F)F)cc2)n1 [Compound 19] | 13 | 50 |
| Fc1cc(Nc2ccc(OC(F)(F)C(F)F)cc2)nc(NN=Cc2ccc(OC(F)(F)C(F)F)cc2)n1 [Compound 20] | 25 | 50 |
| OC(c1ccc(Nc2cc(F)nc(NN=Cc3ccc(OC(F)(F)F)cc3)n2)cc1)(C(F)(F)F)C(F)(F)F [Compound 21] | 100 | 100 |
| OC(c1ccc(Nc2cc(F)nc(NN=Cc3ccc(OC(F)(F)C(F)F)cc3)n2)cc1)(C(F)(F)F)C(F)(F)F [Compound 22] | 100 | 100 |
| COc1ccc(/C=N/Nc2nc(Cl)cc(Nc3ccc(F)c(C(F)(F)F)c3)n2)cc1 [Compound 23] | 38 | 50 |

| SMILES | HELIZE 50 (ug/cm2), percent control [1] [%] | LAPHEG 50 (ug/cm2), percent control [2] [%] |
| --- | --- | --- |
| Fc1ccc(Nc2cc(Cl)nc(N/N=C/c3cccc(Cl)c3)n2)cc1C(F)(F)F [Compound 24] | 100 | 100 |
| Clc1ccc(/C=N/Nc2nc(Cl)cc(Nc3ccc(Cl)cc3)n2)cc1 [Compound 25] | 100 | 75 |
| FC(F)(F)Oc1ccc(/C=N/Nc2nc(Cl)cc(Nc3ccc(Cl)cc3)n2)cc1 [Compound 26] | 100 | 100 |
| Clc1ccc(Nc2cc(Cl)nc(N/N=C/c3ccc(N4CCCCC4)cc3)n2)cc1 [Compound 27] | 100 | 38 |
| Clc1ccc(Nc2cc(Cl)nc(N/N=C/c3cccc(Cl)c3)n2)cc1 [Compound 28] | 50 | 50 |
| COc1ccc(/C=N/Nc2nc(Cl)cc(Nc3ccc(Cl)cc3)n2)cc1 [Compound 29] | 0 | 63 |
| Fc1ccc(Nc2cc(Cl)nc(N/N=C/c3cccc(OC(F)(F)C(F)F)c3)n2)cc1C(F)(F)F [Compound 30] | 13 | 100 |
| FC(F)(F)c1ccc(/C=N/Nc2nc(Cl)cc(Nc3cccc(Cl)c3)n2)cc1 [Compound 31] | 100 | 100 |
| Clc1ccc(/C=N/Nc2nc(Cl)cc(Nc3cccc(Cl)c3)n2)cc1 [Compound 32] | 88 | 0 |
| N#Cc1ccc(/C=N/Nc2nc(Cl)cc(Nc3cccc(Cl)c3)n2)cc1 [Compound 33] | 13 | 13 |
| Clc1cc(Nc2cccc(Br)c2)nc(N/N=C/c2ccccc2Cl)n1 [Compound 34] | 13 | 25 |
| Clc1cccc(/C=N/Nc2nc(Cl)cc(Nc3cccc(Br)c3)n2)c1 [Compound 35] | 25 | 0 |
| Clc1ccc(/C=N/Nc2nc(Cl)cc(Nc3cccc(Br)c3)n2)cc1 [Compound 36] | 38 | 0 |
| FC(F)(F)Oc1ccc(/C=N/Nc2nc(Cl)cc(Nc3cccc(Br)c3)n2)cc1 [Compound 37] | 100 | 100 |
| Clc1cccc(/C=N/Nc2nc(Cl)cc(Nc3cccc(Cl)c3)n2)c1 [Compound 38] | 0 | 25 |
| FC(F)(F)Oc1ccc(/C=N/Nc2nc(Cl)cc(Nc3cccc(Cl)c3)n2)cc1 [Compound 39] | 100 | 100 |
| FC(F)(F)c1ccc(/C=N/Nc2nc(Cl)cc(Nc3cccc(Br)c3)n2)cc1 [Compound 40] | 100 | 100 |
| Fc1ccc(Nc2nc(N/N=C/c3ccc(OC(F)(F)F)cc3)nc(Cl)c2Cl)cc1C(F)(F)F [Compound 41] | 75 | 0 |
| Fc1ccc(Nc2nc(N/N=C/c3ccc(OC(F)(F)C(F)F)cc3)nc(Cl)c2Cl)cc1C(F)(F)F [Compound 42] | 38 | 38 |
| Clc1cccc(Nc2cc(Cl)nc(N/N=C/c3ccc(N4CCCCC4)cc3)n2)c1 [Compound 43] | 63 | 0 |
| Clc1cccc(Nc2cc(Cl)nc(N/N=C/c3ccc(N4CCCC4)cc3)n2)c1 [Compound 44] | 50 | 0 |
| FC(F)C(F)(F)Oc1cccc(/C=N/Nc2nc(Cl)cc(Nc3ccc(Cl)cc3)n2)c1 [Compound 45] | 63 | 63 |
| FC(F)(F)c1ccc(/C=N/Nc2nc(Cl)cc(Nc3ccc(Cl)cc3)n2)cc1 [Compound 46] | 100 | 100 |
